From patent publication US20220289746A1, “PYRROLIDINE DERIVATIVES” (Hoffmann-La Roche Inc., priority 2019, published 2022)

Legend:
liver cells = test: Determination of the in vitro clearance in liver cells; type: in vitro ADME; conditions: for clearance values reduced compared to clearance values of examples P1, P2 and P55: in vitro clearance, relative to reference compounds; for Clearance: in vitro intrinsic clearance, liver cells (hepatocyte cultures), 37° C.
Experimental: Determination of the In Vitro Clearance
Incubations of a test compound at different concentrations were performed in 96 well plates containing liver cells (5% CO2 atmosphere and 37° C.). At defined time points, either cell medium was taken or the whole well was quenched with acetonitrile containing an internal standard. Samples are then cooled and centrifuged before analysis by LC-MS/MS. Different enzyme markers (Cyp3A4 substrates Midazolam, Quinidin, CYP2B6 Buproprion, CYP2D6 Dextromethorphan, CYP2C9 Tolbutamide, FMO substrate Benzydamine, UGT substrate Raloxifene) for assessing the metabolic activity of the hepatocyte cultures were used as quality control.
Log peak area ratios (test compound peak area/internal standard peak area) or concentrations were plotted against incubation time and a linear fit made to the data with emphasis upon the initial rate of compound disappearance. The slope of the fit is then used to calculate the intrinsic clearance:
Additionally, the intrinsic clearance can also be deduced by the measured rates of metabolite formation.

human M4 receptor [1] = target: T1, human M4 receptor (Homo sapiens, UniProt P08173); test: cAMP assay for M4 positive allosteric modulators (M4 PAM cAMP assay); type: cell-based; parameters: expressed in transfected cells; host or cells: CHO-K1; conditions: CHO-K1 cells expressing human M4, forskolin 7.5 μM + acetylcholine EC20 (0.2 nM)
T1 sequence (P08173 1-479): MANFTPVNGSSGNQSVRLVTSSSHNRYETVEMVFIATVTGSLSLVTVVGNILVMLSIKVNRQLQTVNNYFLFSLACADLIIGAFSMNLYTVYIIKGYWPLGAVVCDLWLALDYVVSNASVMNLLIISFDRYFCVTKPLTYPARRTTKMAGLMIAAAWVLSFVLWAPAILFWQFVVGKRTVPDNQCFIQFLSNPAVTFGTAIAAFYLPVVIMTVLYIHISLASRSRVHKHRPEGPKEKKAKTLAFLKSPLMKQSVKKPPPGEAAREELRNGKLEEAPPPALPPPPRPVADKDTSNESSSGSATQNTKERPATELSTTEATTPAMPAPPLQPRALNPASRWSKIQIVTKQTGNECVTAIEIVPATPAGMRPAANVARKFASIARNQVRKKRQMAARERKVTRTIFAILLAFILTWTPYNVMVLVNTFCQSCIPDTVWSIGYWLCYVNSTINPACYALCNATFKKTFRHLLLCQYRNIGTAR
Procedure, shortened: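 CHO-K1 cells stably expressing untagged human M4 pre-treated 15 min at 37 °C with compound plus IBMX, then stimulated 30 min with 7.5 μM forskolin and EC20 acetylcholine (0.2 nM). cAMP read by TR-FRET; normalised to 2 nM acetylcholine plus forskolin as 100%, sigmoidal fit giving EC50 and % efficacy.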

human M4 receptor [2] = target: T1, human M4 receptor; test: Calcium flux assay using fluorescent imaging (M4 PAM FLIPR assay); type: cell-based; parameters: expressed in transfected cells; host or cells: CHO (monoclonal line, clone 2); conditions: CHO cells expressing human M4+Gqi5, acetylcholine EC20
Procedure, shortened: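 CHO cells stably expressing human M4 with Gqi5 were loaded with 2 μM Fluo-4-AM for about 90 min at 37 °C, in HBSS/20 mM HEPES pH 7.3/2.5 mM probenecid. For PAM mode, compound was pre-incubated 15 min before an EC20 acetylcholine challenge; calcium read on FDSS 7000. EC50 and efficacy are relative to 3 μM acetylcholine (EC100), four-parameter fit.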

M4 receptor = target: T2, M4 receptor (Mus musculus, UniProt P32211); conditions: rodent in vivo; effects absent in M4 knockout mice; cited from earlier work
T2 construct: host or cells: living mice (behavioural test)
T2 sequence (P32211 1-479): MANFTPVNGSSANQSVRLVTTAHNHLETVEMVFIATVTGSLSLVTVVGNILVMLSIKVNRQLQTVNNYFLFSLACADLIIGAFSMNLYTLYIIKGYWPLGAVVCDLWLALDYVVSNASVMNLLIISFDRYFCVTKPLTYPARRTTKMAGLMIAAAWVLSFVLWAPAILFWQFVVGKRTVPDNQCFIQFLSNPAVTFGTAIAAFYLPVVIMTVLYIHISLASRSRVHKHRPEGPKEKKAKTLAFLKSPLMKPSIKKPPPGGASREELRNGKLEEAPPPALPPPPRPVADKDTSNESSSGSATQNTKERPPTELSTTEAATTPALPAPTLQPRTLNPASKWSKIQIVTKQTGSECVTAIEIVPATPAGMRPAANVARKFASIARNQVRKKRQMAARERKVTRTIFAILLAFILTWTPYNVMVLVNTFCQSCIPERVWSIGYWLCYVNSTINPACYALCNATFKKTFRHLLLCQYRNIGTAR

muscarinic receptors = conditions: 345 Alzheimer patients; cited from earlier work

| Compound | Clearance (liver cells) [μl/min/1 * 10^6 cells] | EC50 (human M4 receptor [1]; Table 1) [nM] | EC50 (human M4 receptor [2]; Table 1) [nM] | other results |
| --- | --- | --- | --- | --- |
| Cc1nc2c(c(C)c1Cl)CN(C(=O)[C@@H]1CCN(c3cccnc3)C1)C2 [Example 1, (3-chloro-2,4-dimethyl-5,7-dihydropyrrolo[3,4-b]pyridin-6-yl)-[(3R)-1-(3-pyridyl)pyrrolidin-3-yl]methanone] | 9.3 | 155 | 387 | clearance values reduced compared to clearance values of examples P1, P2 and P55 (liver cells): 50% |
| Cc1nc2c(c(C)c1Cl)CN(C(=O)[C@@H]1CCN(c3ccncn3)C1)C2 [Example 2, (3-chloro-2,4-dimethyl-5,7-dihydropyrrolo[3,4-b]pyridin-6-yl)-[(3R)-1-pyrimidin-4-ylpyrrolidin-3-yl]methanone] | 3.5 | 79 | 61 | clearance values reduced compared to clearance values of examples P1, P2 and P55 (liver cells): 50% |
| Cc1cncc(N2CC[C@@H](C(=O)N3Cc4nc(C)c(Cl)c(C)c4C3)C2)n1 [Example 51, (3-chloro-2,4-dimethyl-5,7-dihydropyrrolo[3,4-b]pyridin-6-yl)-[(3R)-1-(6-methylpyrazin-2-yl)pyrrolidin-3-yl]methanone] |  | 591 | 363 |  |
| Cc1cc(N2CC[C@@H](C(=O)N3Cc4nc(C)c(Cl)c(C)c4C3)C2)cnn1 [Example 52, (3-chloro-2,4-dimethyl-5,7-dihydropyrrolo[3,4-b]pyridin-6-yl)-[(3R)-1-(6-methylpyridazin-4-yl)pyrrolidin-3-yl]methanone] |  | 1160 | 527 |  |
| COCc1nc2c(c(C)c1Cl)CN(C(=O)[C@@H]1CCN(c3cc(C)ncn3)C1)C2 [Example 53, [3-chloro-2-(methoxymethyl)-4-methyl-5,7-dihydropyrrolo[3,4-b]pyridin-6-yl]-[(3R)-1-(6-methylpyrimidin-4-yl)pyrrolidin-3-yl]methanone] |  | 503 | 184 |  |
| Cc1nc2c(c(C)c1Cl)CN(C(=O)[C@@H]1CCN(c3cc(C(F)F)ncn3)C1)C2 [Example 54, (3-chloro-2,4-dimethyl-5,7-dihydropyrrolo[3,4-b]pyridin-6-yl)-[(3R)-1-[6-(difluoromethyl)pyrimidin-4-yl]pyrrolidin-3-yl]methanone] |  | 444 | 247 |  |
| COCc1nc2c(c(C)c1Cl)CN(C(=O)[C@@H]1CCN(c3ccncn3)C1)C2 [Example 55, [3-chloro-2-(methoxymethyl)-4-methyl-5,7-dihydropyrrolo[3,4-b]pyridin-6-yl]-[(3R)-1-pyrimidin-4-ylpyrrolidin-3-yl]methanone] | 2.1 | 192 | 42 | clearance values reduced compared to clearance values of examples P1, P2 and P55 (liver cells): 50% |
| COCc1nc2c(c(C)c1Cl)CN(C(=O)[C@@H]1CCN(c3cccnc3)C1)C2 [Example 56, [3-chloro-2-(methoxymethyl)-4-methyl-5,7-dihydropyrrolo[3,4-b]pyridin-6-yl]-[(3R)-1-(3-pyridyl)pyrrolidin-3-yl]methanone] |  | 80 | 486 |  |
| COCc1nc2c(c(C)c1Cl)CN(C(=O)[C@@H]1CCN(c3ccnc(C(F)F)c3)C1)C2 [Example 57, [3-chloro-2-(methoxymethyl)-4-methyl-5,7-dihydropyrrolo[3,4-b]pyridin-6-yl]-[(3R)-1-[2-(difluoromethyl)-4-pyridyl]pyrrolidin-3-yl]methanone] |  | 283 | 99 |  |
| COCc1nc2c(c(C)c1Cl)CN(C(=O)[C@@H]1CCN(c3cncnc3)C1)C2 [Example 58, [3-chloro-2-(methoxymethyl)-4-methyl-5,7-dihydropyrrolo[3,4-b]pyridin-6-yl]-[(3R)-1-pyrimidin-5-ylpyrrolidin-3-yl]methanone] |  | 179 | 74 |  |
| COCc1nc2c(c(C)c1Cl)CN(C(=O)[C@@H]1CCN(c3ccnnc3)C1)C2 [Example 59, [3-chloro-2-(methoxymethyl)-4-methyl-5,7-dihydropyrrolo[3,4-b]pyridin-6-yl]-[(3R)-1-pyridazin-4-ylpyrrolidin-3-yl]methanone] |  | 881 | 209 |  |
| Cc1nc2c(c(C)c1Cl)CN(C(=O)CC1CN(c3cccnc3)C1)C2 [Example P1, reference compound] | 20 |  |  | EC50 (human M4 receptor [1]; Table 2): 55 nM; EC50 (human M4 receptor [2]; Table 2): 947 nM |
| Cc1nc2c(c(C)c1Cl)CN(C(=O)CC1CN(c3ccncn3)C1)C2 [Example P2, reference compound] | 7.9 |  |  | EC50 (human M4 receptor [1]; Table 2): 53 nM; EC50 (human M4 receptor [2]; Table 2): 35 nM |
| COCc1nc2c(c(C)c1Cl)CN(C(=O)CC1CN(c3ccncn3)C1)C2 [Example P55, 1-[3-chloro-2-(methoxymethyl)-4-methyl-5,7-dihydropyrrolo[3,4-b]pyridin-6-yl]-2-(1-pyrimidin-4-ylazetidin-3-yl)ethanone, reference compound] | 5.1 |  |  | EC50 (human M4 receptor [2]; Table 2): 50 nM |
| Cc1nnc2sc(C(=O)NCc3ccc(S(=O)(=O)C(F)(F)F)cc3)c(N)c2c1C [VU0467154] |  |  |  | effect on associative learning impairments induced by MK-801 (M4 receptor): ameliorated the associative learning impairments |
| CCCCCCOc1nsnc1C1=CCCN(C)C1 [Xanomeline] |  |  |  | effect on cognition and psychiatric symptoms (muscarinic receptors): improve cognition and psychiatric symptoms |
